Measured values published in patent US6444617B1, “Fused-heterocycle dicarboxylic acid diamide derivatives or salts thereof, herbicide and usage thereof” (Nihon Nohyaku Co., Ltd., priority 1998, dated 2002).

What was measured:
Assay type in all cases: in vivo
[1] = test system: velvetleaf (Abutilon theophtasti L.), At; experiment: Test Example 3: herbicidal effect on upland weeds before emergence; conditions: dosage 5 kg/ha
How it was run: (§1)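 Test compound, formulated as a liquid at a fixed concentration, is sprayed before weed emergence. Two weeks later, kill rate is derived and herbicidal activity is rated.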

[2] = test system: barnyard grass (Echinochloa crus-galli Beauv.), Ec; experiment: as above; conditions: dosage 5 kg/ha
How it was run: as §1

[3] = test system: cleavers (Galium aparine L.), Ga; experiment: as above; conditions: dosage 5 kg/ha
How it was run: as §1

[4] = test system: forxtail grass (Alopecurus aequalis var. amurensis Ohwi), Am; experiment: as above; conditions: foxtail grass, dosage 5 kg/ha
How it was run: as §1

[5] = test system: bird's eye speedwell (Veronica persica Poir.), Vp; experiment: as above; conditions: dosage 5 kg/ha
How it was run: as §1

[6] = test system: cocklebur (Xanthium strumarium L.), Xs; experiment: as above; conditions: dosage 5 kg/ha
How it was run: as §1

[7] = test system: barnyard grass (Echinochloa crus-galli Beauv.); experiment: Test Example 1: herbicidal effect on paddy field weeds before emergence; conditions: Dosage 5 kg/ha
How it was run: (§2)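 Grading reflects percent control relative to untreated plots, evaluated three weeks post-application. Treatment was a soil application of compound solution, predetermined dose, made to paddy-state pots before weed seeds germinated.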

[8] = test system: bulrush (Scirpus juncoides Roxb.); experiment: as above; conditions: Dosage 5 kg/ha
How it was run: as §2

wheat (Wh) = experiment: Test Example 3: phytotoxicity to upland crop plants, treatment before emergence; conditions: dosage 5 kg/ha
How it was run: (§3)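 Pre-emergence spray of a liquid preparation at a prescribed compound concentration. Soybean and wheat injury was scored against a phytotoxicity criterion 14 days after treatment, alongside weed control.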

soybean plant (So) = experiment: as above; conditions: dosage 5 kg/ha
How it was run: as §3

soybean plant = experiment: Test Example 4: phytotoxicity to upland crop plants, treatment after emergence; conditions: dosage 5 kg/ha, sprayed after emergence, judged 14 days after treatment
How it was run: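 Post-emergence foliar spray, compound at prescribed concentration, applied at defined leaf stages; weeds plus soybean/wheat grown in soil vats. Read-out: weed-killing rate and crop injury, 14 d post-treatment.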

wheat = experiment: as above; conditions: dosage 5 kg/ha, sprayed after emergence, judged 14 days after treatment
How it was run: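 Seeds sown in soil and covered. Plants raised to specified leaf stages. Agent with test compound at a prescribed concentration sprayed. Herbicidal effect and crop damage scored after 14 days as weed-killing rate.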

[9] = test system: monochoria (Monochoria vaginalis Presl); experiment: Test Example 2: herbicidal effect on paddy field weeds after emergence; conditions: Dosage 5 kg/ha; one-leaved stage; 21 days after treatment
How it was run: (§4)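 Weeds in flooded paddy-soil pots were grown to the one-leaved stage, then the soil was treated with the compound solution at a set dosage.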

[10] = test system: barnyard grass (Echinochloa crus-galli Beauv.); experiment: as above; conditions: Dosage 5 kg/ha; one-leaved stage; 21 days after treatment
How it was run: as §4

[11] = test system: bulrush (Scirpus juncoides Roxb.); experiment: as above; conditions: Dosage 5 kg/ha; one-leaved stage; 21 days after treatment
How it was run: as §4

[12] = test system: velvetleaf (Abutilon theophtasti L.), At; experiment: Test Example 4: herbicidal effect on upland weeds after emergence; conditions: dosage 5 kg/ha; sprayed after emergence; judged 14 days after treatment
How it was run: (§5)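 Weeds and soybean grown in soil-filled vats to set leaf stages, then sprayed post-emergence with the compound at a prescribed concentration. Weed-killing rate and crop phytotoxicity judged 14 days after treatment.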

[13] = test system: barnyard grass (Echinochloa crus-galli Beauv.), Ec; experiment: as above; conditions: dosage 5 kg/ha; sprayed after emergence; judged 14 days after treatment
How it was run: as §5

[14] = test system: cleavers (Galium aparine L.), Ga; experiment: as above; conditions: dosage 5 kg/ha; sprayed after emergence; judged 14 days after treatment
How it was run: as §5

[15] = test system: forxtail grass (Alopecurus aequalis var. amurensis Ohwi), Am; experiment: as above; conditions: dosage 5 kg/ha; sprayed after emergence; judged 14 days after treatment
How it was run: as §5

[16] = test system: bird's eye speedwell (Veronica persica Poir.), Vp; experiment: as above; conditions: dosage 5 kg/ha; sprayed after emergence; judged 14 days after treatment
How it was run: as §5

[17] = test system: cocklebur (Xanthium strumarium L.), Xs; experiment: as above; conditions: dosage 5 kg/ha; sprayed after emergence; judged 14 days after treatment
How it was run: as §5

Structure (SMILES) | Herbicidal effect At [1] | Herbicidal effect Ec [2] | Herbicidal effect Ga [3] | Herbicidal effect Am [4] | Herbicidal effect Vp [5] | Herbicidal effect Xs [6] | Pre-emergence treatment Barnyard grass (herbicidal effect) [7] | Pre-emergence treatment Bulrush (herbicidal effect) [8] | Phytotoxicity Wh (wheat (Wh)) | Phytotoxicity So (soybean plant (So)) | Phytotoxicity So (soybean plant) | Phytotoxicity Wh (wheat) | Post-emergence treatment Monochoria (herbicidal effect) [9] | Post-emergence treatment Barnyard grass (herbicidal effect) [10] | Post-emergence treatment Bulrush (herbicidal effect) [11] | Herbicidal effect At [12] | Herbicidal effect Ec [13] | Herbicidal effect Ga [14] | Herbicidal effect Am [15] | Herbicidal effect Vp [16] | further results
CCc1ccc(Cl)c(CC)c1NC(=O)c1cc2ccccc2nc1C(=O)NC1CCCC1 [359-6] | 5 (Weed-killing rate is 100%.) | 5 (Weed-killing rate is 100%.) | 5 (Weed-killing rate is 100%.) | 5 (Weed-killing rate is 100%.) | 5 (Weed-killing rate is 100%.) | 5 (Weed-killing rate is 100%.) | 5 (Weed-killing rate is 100%.) | 5 (Weed-killing rate is 100%.) | 0 (Crop-killing rate is 0-20% (No Phytotoxicity).) | 0 (Crop-killing rate is 0-20% (No Phytotoxicity).) | 3 (Crop-killing rate is 70-89%.) | 2 (Crop-killing rate is 40-69%.) | 5 (Weed-killing rate is 100%.) | 5 (Weed-killing rate is 100%.) | 5 (Weed-killing rate is 100%.) | 5 (Weed-killing rate is 100%.) | 5 (Weed-killing rate is 100%.) | 5 (Weed-killing rate is 100%.) | 5 (Weed-killing rate is 100%.) | 5 (Weed-killing rate is 100%.) | Herbicidal effect Xs [17]: 5 (Weed-killing rate is 100%.)
CCCNC(=O)c1nc2scc(Br)c2cc1C(=O)Nc1c(CC)ccc(Cl)c1CC [compound 814] | 5 (Weed-killing rate is 100%.) | 5 (Weed-killing rate is 100%.) | 4 (Weed-killing rate is 90-99%.) | 5 (Weed-killing rate is 100%.) | 5 (Weed-killing rate is 100%.) | 4 (Weed-killing rate is 90-99%.) | 5 (Weed-killing rate is 100%.) | 5 (Weed-killing rate is 100%.) | 4 (Crop-killing rate is 90-99%.) | 3 (Crop-killing rate is 70-89%.) | 3 (Crop-killing rate is 70-89%.) | 4 (Crop-killing rate is 90-99%.) | 5 (Weed-killing rate is 100%.) | 5 (Weed-killing rate is 100%.) | 5 (Weed-killing rate is 100%.) | 5 (Weed-killing rate is 100%.) | 5 (Weed-killing rate is 100%.) | 4 (Weed-killing rate is 90-99%.) | 5 (Weed-killing rate is 100%.) | 5 (Weed-killing rate is 100%.) | Herbicidal effect Xs [17]: 4 (Weed-killing rate is 90-99%.)
Cc1c(Cl)cccc1NC(=O)c1cc2ccsc2nc1C(=O)NC1CCCC1 [compound 811] | 5 (Weed-killing rate is 100%.) | 5 (Weed-killing rate is 100%.) | 5 (Weed-killing rate is 100%.) | 5 (Weed-killing rate is 100%.) | 5 (Weed-killing rate is 100%.) | 5 (Weed-killing rate is 100%.) | 5 (Weed-killing rate is 100%.) | 5 (Weed-killing rate is 100%.) | 5 (Crop-killing rate is 100%.) | 4 (Crop-killing rate is 90-99%.) | 4 (Crop-killing rate is 90-99%.) | 5 (Crop-killing rate is 100%.) | 5 (Weed-killing rate is 100%.) | 5 (Weed-killing rate is 100%.) | 5 (Weed-killing rate is 100%.) | 5 (Weed-killing rate is 100%.) | 5 (Weed-killing rate is 100%.) | 4 (Weed-killing rate is 90-99%.) | 5 (Weed-killing rate is 100%.) | 5 (Weed-killing rate is 100%.) | Herbicidal effect Xs [17]: 4 (Weed-killing rate is 90-99%.)
CCc1ccc(Cl)c(CC)c1NC(=O)c1nc2ccccc2nc1C(=O)NCC(C)(C)C [compound 1314] | 5 (Weed-killing rate is 100%.) | 5 (Weed-killing rate is 100%.) | 4 (Weed-killing rate is 90-99%.) | 5 (Weed-killing rate is 100%.) | 5 (Weed-killing rate is 100%.) | 4 (Weed-killing rate is 90-99%.) | 5 (Weed-killing rate is 100%.) | 5 (Weed-killing rate is 100%.) | 4 (Crop-killing rate is 90-99%.) | 3 (Crop-killing rate is 70-89%.) | 4 (Crop-killing rate is 90-99%.) | 4 (Crop-killing rate is 90-99%.) | 5 (Weed-killing rate is 100%.) | 4 (Weed-killing rate is 90-99%.) | 4 (Weed-killing rate is 90-99%.) | 5 (Weed-killing rate is 100%.) | 5 (Weed-killing rate is 100%.) | 4 (Weed-killing rate is 90-99%.) | 5 (Weed-killing rate is 100%.) | 5 (Weed-killing rate is 100%.) | Herbicidal effect Xs [17]: 4 (Weed-killing rate is 90-99%.)
CCCNC(=O)c1nc2ccsc2cc1C(=O)Nc1c(CC)ccc(Cl)c1CC [compound 871] | 5 (Weed-killing rate is 100%.) | 5 (Weed-killing rate is 100%.) | 5 (Weed-killing rate is 100%.) | 5 (Weed-killing rate is 100%.) | 5 (Weed-killing rate is 100%.) | 5 (Weed-killing rate is 100%.) | 5 (Weed-killing rate is 100%.) | 5 (Weed-killing rate is 100%.) | 5 (Crop-killing rate is 100%.) | 4 (Crop-killing rate is 90-99%.) | 4 (Crop-killing rate is 90-99%.) | 5 (Crop-killing rate is 100%.) | 5 (Weed-killing rate is 100%.) | 5 (Weed-killing rate is 100%.) | 5 (Weed-killing rate is 100%.) | 5 (Weed-killing rate is 100%.) | 5 (Weed-killing rate is 100%.) | 5 (Weed-killing rate is 100%.) | 5 (Weed-killing rate is 100%.) | 5 (Weed-killing rate is 100%.) | Herbicidal effect Xs [17]: 5 (Weed-killing rate is 100%.)
